From ChEMBL document CHEMBL4000141, “Synthesis and carbonic anhydrase isoenzymes I, II, IX, and XII inhibitory effects of dimethoxybromophenol derivatives incorporating cyclopropane moieties” (J Med Chem, 2015)

Target: Carbonic anhydrase 9 (Homo sapiens, UniProt Q16790)
Description: Inhibition of human CA9 by stopped-flow CO2 hydration method

`COc1cc(Br)c(C[C@@H]2C[C@H]2C(=O)O)c(Br)c1OC` was tested. Which Ki did it give?
The Ki was > 50 µM.

Which Ki does the source give for `COc1ccc(C[C@@H]2C[C@@H]2C(=O)O)cc1OC` here?
Its Ki is 8.8 µM.

With `COc1cc(C[C@H]2C[C@H]2C(=O)O)c(Br)c(Br)c1OC` as the molecule, how does the Ki read?
Its Ki is > 50 µM.

For `CCOC(=O)[C@@H]1C[C@H]1Cc1c(Br)c(Br)c(OC)c(OC)c1Br`, which Ki is on record?
Its Ki is 7.8 µM.

For `CCOC(=O)[C@@H]1C[C@@H]1Cc1c(Br)cc(OC)c(OC)c1Br`, which Ki is on record?
The Ki was 8.9 µM.

For `CCOC(=O)[C@@H]1C[C@H]1Cc1cc(OC)c(OC)c(Br)c1Br`, which Ki is on record?
Its Ki is 9 µM.

`COc1ccc(C[C@@H]2C[C@H]2C(=O)O)cc1OC` was tested. Which Ki did it give?
The Ki was 1.1 µM.

Which Ki does the source give for `COc1c(Br)c(Br)c(C[C@@H]2C[C@H]2C(=O)O)c(Br)c1OC` here?
Its Ki is > 50 µM.

`CCOC(=O)[C@@H]1C[C@@H]1Cc1ccc(OC)c(OC)c1` was tested. Which Ki did it give?
The Ki was 6.6 µM.

Which Ki does the source give for `COc1cc(Br)c(C[C@@H]2C[C@H]2C(=O)O)cc1OC` here?
The Ki was 9.8 µM.

For `COc1ccc(C[C@@H]2C[C@H]2CO)cc1OC`, which Ki is on record?
Its Ki is 8.8 µM.

`COc1cc(C[C@@H]2C[C@H]2C(=O)O)c(Br)c(Br)c1OC` was tested. Which Ki did it give?
The Ki was > 50 µM.

For `CCOC(=O)[C@@H]1C[C@@H]1Cc1cc(OC)c(OC)c(Br)c1Br`, which Ki is on record?
Its Ki is > 50 µM.

For `CCOC(=O)[C@@H]1C[C@H]1Cc1cc(OC)c(OC)cc1Br`, which Ki is on record?
Its Ki is 7.3 µM.

With `COc1ccc(C[C@H]2C[C@H]2CO)cc1OC` as the molecule, how does the Ki read?
Its Ki is 4.9 µM.

With `CCOC(=O)[C@@H]1C[C@H]1Cc1ccc(OC)c(OC)c1` as the molecule, how does the Ki read?
The Ki was 9.1 µM.

For `COc1cc(Br)c(C[C@H]2C[C@H]2C(=O)O)c(Br)c1OC`, which Ki is on record?
Its Ki is > 50 µM.

`COc1cc(Br)c(C[C@H]2C[C@H]2C(=O)O)cc1OC` was tested. Which Ki did it give?
Its Ki is > 50 µM.

Which Ki does the source give for `CCOC(=O)[C@@H]1C[C@H]1Cc1c(Br)cc(OC)c(OC)c1Br` here?
The Ki was 9.7 µM.

For `COc1c(Br)c(Br)c(C[C@H]2C[C@H]2C(=O)O)c(Br)c1OC`, which Ki is on record?
Its Ki is 10.5 µM.

How did the Ki turn out when `CCOC(=O)[C@@H]1C[C@@H]1Cc1cc(OC)c(OC)cc1Br` was run?
Its Ki is 1 µM.

How did the Ki turn out when `CCOC(=O)[C@@H]1C[C@@H]1Cc1c(Br)c(Br)c(OC)c(OC)c1Br` was run?
The Ki was > 50 µM.

Target: Carbonic anhydrase 12 (Homo sapiens, UniProt O43570)
Sequence (O43570 whole entry): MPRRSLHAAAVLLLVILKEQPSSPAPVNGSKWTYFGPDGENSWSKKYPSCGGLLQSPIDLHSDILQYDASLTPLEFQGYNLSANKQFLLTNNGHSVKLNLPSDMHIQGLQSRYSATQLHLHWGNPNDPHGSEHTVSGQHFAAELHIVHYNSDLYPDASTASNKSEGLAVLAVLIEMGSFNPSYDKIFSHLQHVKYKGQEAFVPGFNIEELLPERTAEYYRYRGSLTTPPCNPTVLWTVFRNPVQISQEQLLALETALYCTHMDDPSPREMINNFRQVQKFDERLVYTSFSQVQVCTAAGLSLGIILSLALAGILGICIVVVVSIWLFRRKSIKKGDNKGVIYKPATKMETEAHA
Test: Inhibition of human CA12 by stopped-flow CO2 hydration method

How did the Ki turn out when `COc1cc(Br)c(C[C@@H]2C[C@H]2C(=O)O)c(Br)c1OC` was run?
The Ki was > 50 µM.

With `COc1cc(C[C@H]2C[C@H]2C(=O)O)c(Br)c(Br)c1OC` as the molecule, how does the Ki read?
The Ki was > 50 µM.

For `COc1cc(C[C@@H]2C[C@H]2C(=O)O)c(Br)c(Br)c1OC`, which Ki is on record?
The Ki was > 50 µM.

Which Ki does the source give for `COc1cc(Br)c(C[C@H]2C[C@H]2C(=O)O)c(Br)c1OC` here?
Its Ki is > 50 µM.
